Measured values reported in patent US20070117770A1, “Human ribosomal DNA (rDNA) and ribosomal RNA (rRNA) nucleic acids and uses thereof” (Cylene Pharmaceuticals, Inc., priority 2005, published 2007).

What was measured:
Test in all cases: Protein kinase inhibition assay
Format in all cases: biochemical
SGK(h) = SGK(h) (Homo sapiens, UniProt O00141); settings: read-out: percent residual activity of SGK(h)
Protocol: (§1) Certain compounds were tested for activity in protein kinase inhibition assays. All substrates were dissolved and diluted to working stocks in de-ionized water, apart from histone H1 (10× working stock in 20 mM MOPS pH 7.0), PDKtide (10× working stock in 50 mM Tris pH 7.0) ATF2 (which is typically stored at a 20× working stock in 50 mM Tris pH 7.5, 150 mM NaCl, 0.1 mM EGTA, 0.03% Brij-35, 50% glycerol, 1 mM benzamidine, 0.2 mM PMSF and 0.1% R-mercaptoethanol), KKLNRTLSFAEPG (SEQ ID NO:203) and RRRLSFAEPG (SEQ ID NO:204) (50 mM HEPES pH 7.4) and GGEEEEYFELVKKKK (SEQ ID NO:205) (20 mM MOPS pH 7.0). All kinases were pre-diluted to a 10× working concentration prior to addition into the assay. The composition of the dilution buffer for each kinase is detailed below.
(§2) In a final reaction volume of 25 μl, SGK (h) (5-10 mU) is incubated with 8 mM MOPS pH 7.0, 0.2 mM EDTA, 30 μM GRPRTSSFAEGKK (SEQ ID NO:226), 10 mM MgAcetate and [gamma-33P-ATP] (specific activity approx. 500 cpm/pmol, concentration as required). The reaction is initiated by the addition of the MgATP mix. After incubation for 40 minutes at room temperature, the reaction is stopped by the addition of 5 μl of a 3% phosphoric acid solution. 10 μl of the reaction is then spotted onto a P30 filtermat and washed three times for 5 minutes in 75 mM phosphoric acid and once in methanol prior to drying and scintillation counting.

TrkB(h) = TrkB(h) (Homo sapiens, UniProt Q16620); settings: read-out: percent residual activity of TrkB(h)
Chain of TrkB(h) (Q16620 32-822): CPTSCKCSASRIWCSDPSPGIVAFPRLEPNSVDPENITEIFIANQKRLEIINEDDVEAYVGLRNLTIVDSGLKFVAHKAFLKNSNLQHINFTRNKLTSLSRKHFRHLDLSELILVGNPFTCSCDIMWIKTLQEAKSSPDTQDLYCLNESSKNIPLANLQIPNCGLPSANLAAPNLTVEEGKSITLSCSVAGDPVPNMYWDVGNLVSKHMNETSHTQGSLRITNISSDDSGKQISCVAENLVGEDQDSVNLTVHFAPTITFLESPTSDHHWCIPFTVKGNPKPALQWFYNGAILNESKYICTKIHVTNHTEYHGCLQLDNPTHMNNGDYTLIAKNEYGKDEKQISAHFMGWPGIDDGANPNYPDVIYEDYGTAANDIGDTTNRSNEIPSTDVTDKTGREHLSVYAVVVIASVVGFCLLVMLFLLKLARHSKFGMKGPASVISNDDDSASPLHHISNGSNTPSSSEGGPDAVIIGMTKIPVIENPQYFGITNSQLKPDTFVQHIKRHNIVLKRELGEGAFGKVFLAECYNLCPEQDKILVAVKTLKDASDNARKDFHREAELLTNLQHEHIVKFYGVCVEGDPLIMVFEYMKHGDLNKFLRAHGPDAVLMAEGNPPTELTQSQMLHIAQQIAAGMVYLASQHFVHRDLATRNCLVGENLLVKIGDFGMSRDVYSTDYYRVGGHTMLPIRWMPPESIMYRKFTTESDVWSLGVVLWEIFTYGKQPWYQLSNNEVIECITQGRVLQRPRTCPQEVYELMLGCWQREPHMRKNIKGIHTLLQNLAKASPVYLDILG
Protocol: as §1
as §2, with “TrkB” for “SGK”, “0.1 mg/ml poly(Glu, Tyr) 4:1,” for “30 μM GRPRTSSFAEGKK (SEQ ID NO:226),”, “Filtermat A” for “P30 filtermat”

Fms(h) = Fms(h) (Homo sapiens, UniProt P07333); settings: read-out: percent residual activity of Fms(h)
Chain of Fms(h) (P07333 20-972): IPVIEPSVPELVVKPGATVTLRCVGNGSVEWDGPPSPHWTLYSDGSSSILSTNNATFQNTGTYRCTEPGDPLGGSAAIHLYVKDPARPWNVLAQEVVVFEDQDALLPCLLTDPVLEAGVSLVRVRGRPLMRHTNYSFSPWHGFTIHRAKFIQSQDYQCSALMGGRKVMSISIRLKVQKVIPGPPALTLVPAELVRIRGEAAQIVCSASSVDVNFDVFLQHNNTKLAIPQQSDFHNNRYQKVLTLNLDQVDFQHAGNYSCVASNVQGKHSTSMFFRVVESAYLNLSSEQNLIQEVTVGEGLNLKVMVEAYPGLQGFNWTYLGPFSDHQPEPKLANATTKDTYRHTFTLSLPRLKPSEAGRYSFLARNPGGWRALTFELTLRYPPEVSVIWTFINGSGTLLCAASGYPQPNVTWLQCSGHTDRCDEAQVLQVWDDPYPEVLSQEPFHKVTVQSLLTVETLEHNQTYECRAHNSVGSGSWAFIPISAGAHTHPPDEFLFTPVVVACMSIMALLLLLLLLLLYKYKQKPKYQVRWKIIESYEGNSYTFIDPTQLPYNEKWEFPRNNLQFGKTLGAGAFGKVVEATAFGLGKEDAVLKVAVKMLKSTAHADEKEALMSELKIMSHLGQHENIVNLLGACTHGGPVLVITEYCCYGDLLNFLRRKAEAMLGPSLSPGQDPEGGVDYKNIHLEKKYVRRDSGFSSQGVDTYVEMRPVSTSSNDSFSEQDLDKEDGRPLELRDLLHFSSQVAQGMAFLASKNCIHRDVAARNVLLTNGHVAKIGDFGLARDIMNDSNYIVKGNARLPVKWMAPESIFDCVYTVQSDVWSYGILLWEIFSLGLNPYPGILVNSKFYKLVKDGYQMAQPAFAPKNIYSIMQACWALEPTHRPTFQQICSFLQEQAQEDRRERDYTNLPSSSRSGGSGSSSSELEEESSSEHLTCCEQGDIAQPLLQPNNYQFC
Protocol: as §1
as §2, with “μl, Fms” for “μl, SGK”, “EDTA, 250” for “EDTA, 30”, “μM KKKSPGEYVNIEFG” for “μM GRPRTSSFAEGKK”, “ID NO:207),” for “ID NO:226),”, “and [y-33P-ATP]” for “and [gamma-33P-ATP]”

CDK1/cyclinB(h) = CDK1/cyclinB(h) (Homo sapiens, UniProt P06493); settings: read-out: percent residual activity of CDK1/cyclinB(h)
Chain of CDK1/cyclinB(h) (P06493 whole entry): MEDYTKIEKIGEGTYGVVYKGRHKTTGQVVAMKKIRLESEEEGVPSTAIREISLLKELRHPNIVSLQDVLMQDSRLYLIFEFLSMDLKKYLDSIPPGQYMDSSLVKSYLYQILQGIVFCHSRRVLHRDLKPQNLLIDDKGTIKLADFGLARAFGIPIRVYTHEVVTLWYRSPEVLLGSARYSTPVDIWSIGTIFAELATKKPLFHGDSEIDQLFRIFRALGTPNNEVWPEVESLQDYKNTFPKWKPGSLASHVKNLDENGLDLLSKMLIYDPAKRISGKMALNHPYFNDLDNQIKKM
Chain of CDK1/cyclinB(h) (P14635 whole entry partner): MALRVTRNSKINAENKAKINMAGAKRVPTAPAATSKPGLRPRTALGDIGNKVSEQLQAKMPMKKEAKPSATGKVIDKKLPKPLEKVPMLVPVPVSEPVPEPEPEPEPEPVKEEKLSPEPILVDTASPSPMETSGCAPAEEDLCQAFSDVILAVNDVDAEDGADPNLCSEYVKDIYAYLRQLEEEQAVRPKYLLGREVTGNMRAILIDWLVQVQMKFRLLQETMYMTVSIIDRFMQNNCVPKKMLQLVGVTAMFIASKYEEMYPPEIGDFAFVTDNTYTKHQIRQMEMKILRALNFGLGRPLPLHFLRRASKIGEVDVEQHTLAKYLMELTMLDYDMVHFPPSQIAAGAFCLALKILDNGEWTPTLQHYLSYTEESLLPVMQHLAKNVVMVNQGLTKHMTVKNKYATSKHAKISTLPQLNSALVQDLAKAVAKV
Protocol: as §1
as §2, with “CDK1/cyclinB” for “SGK”, “0.1 mg/ml histone H1,” for “30 μM GRPRTSSFAEGKK (SEQ ID NO:226),”

EGFR(h) = EGFR(h) (Homo sapiens, UniProt P00533); settings: read-out: percent residual activity of EGFR(h)
Chain of EGFR(h) (P00533 25-1210): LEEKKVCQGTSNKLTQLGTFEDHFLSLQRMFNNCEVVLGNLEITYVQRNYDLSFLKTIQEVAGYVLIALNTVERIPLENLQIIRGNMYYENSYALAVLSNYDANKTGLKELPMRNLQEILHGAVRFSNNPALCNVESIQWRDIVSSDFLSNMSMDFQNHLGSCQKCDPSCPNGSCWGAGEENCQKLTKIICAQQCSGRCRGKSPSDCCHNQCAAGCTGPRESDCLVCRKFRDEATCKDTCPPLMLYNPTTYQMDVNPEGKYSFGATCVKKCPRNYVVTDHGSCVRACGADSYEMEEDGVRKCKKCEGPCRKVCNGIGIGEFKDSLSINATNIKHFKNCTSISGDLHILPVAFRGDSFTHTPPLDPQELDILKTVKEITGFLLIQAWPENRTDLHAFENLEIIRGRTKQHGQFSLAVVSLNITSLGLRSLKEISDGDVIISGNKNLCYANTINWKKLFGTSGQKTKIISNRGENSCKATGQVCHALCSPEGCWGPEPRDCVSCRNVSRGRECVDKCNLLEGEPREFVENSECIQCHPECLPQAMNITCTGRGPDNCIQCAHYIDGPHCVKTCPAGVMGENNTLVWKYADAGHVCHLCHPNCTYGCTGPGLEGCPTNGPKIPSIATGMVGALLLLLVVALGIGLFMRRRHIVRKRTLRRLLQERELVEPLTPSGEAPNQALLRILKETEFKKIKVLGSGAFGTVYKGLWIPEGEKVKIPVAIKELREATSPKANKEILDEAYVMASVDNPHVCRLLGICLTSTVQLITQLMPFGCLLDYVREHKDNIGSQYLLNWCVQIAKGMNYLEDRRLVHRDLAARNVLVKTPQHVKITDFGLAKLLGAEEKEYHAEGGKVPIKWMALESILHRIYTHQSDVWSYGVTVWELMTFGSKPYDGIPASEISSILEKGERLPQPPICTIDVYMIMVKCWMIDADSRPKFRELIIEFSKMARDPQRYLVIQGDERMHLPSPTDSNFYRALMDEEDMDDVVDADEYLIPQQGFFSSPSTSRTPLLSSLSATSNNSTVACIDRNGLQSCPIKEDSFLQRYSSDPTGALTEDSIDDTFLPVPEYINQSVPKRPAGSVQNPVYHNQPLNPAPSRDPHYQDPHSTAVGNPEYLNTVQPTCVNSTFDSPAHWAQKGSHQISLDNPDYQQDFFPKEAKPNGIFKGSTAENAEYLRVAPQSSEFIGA
Protocol: as §1
as §2, with “EGFR” for “SGK”, “10 mM MnCl2, 0.1 mg/ml poly(Glu, Tyr) 4:1,” for “30 μM GRPRTSSFAEGKK (SEQ ID NO:226),”, “Filtermat A” for “P30 filtermat”

TSSK2(h) = TSSK2(h) (Homo sapiens, UniProt Q96PF2); settings: read-out: percent residual activity of TSSK2(h)
Chain of TSSK2(h) (Q96PF2 whole entry): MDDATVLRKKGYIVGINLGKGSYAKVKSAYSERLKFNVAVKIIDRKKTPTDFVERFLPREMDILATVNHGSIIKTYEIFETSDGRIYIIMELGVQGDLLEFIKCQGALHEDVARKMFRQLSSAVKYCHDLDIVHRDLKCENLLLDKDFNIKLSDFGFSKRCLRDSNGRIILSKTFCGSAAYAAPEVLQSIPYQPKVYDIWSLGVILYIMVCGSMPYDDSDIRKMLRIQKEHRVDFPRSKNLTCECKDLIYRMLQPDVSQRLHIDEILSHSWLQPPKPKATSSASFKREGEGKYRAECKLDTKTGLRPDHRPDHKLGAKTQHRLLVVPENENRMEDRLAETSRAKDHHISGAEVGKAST
Protocol: as §1
as §2, with “μl, TSSK2” for “μl, SGK”, “EDTA, 100” for “EDTA, 30”, “μM […]” for “μM GRPRTSSFAEGKK”, “ID NO:213),” for “ID NO:226),”, “and [y-33P-ATP]” for “and [gamma-33P-ATP]”

Chain of SGK(h) (O00141 whole entry): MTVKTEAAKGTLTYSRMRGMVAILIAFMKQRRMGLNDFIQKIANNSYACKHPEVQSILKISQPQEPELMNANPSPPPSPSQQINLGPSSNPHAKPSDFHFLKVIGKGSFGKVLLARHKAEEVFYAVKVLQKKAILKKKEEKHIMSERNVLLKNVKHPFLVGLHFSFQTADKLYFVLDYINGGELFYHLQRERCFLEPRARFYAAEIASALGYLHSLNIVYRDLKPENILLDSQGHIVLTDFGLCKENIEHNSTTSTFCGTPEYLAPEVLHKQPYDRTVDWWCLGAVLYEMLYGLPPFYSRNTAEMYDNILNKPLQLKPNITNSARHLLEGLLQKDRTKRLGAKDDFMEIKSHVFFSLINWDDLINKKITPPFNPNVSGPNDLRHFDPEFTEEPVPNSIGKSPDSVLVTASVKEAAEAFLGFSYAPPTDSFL

remaining activity at 2.5 µM (SGK(h)) [%]	remaining activity at 2.5 µM (TrkB(h)) [%]	remaining activity at 2.5 µM (Fms(h)) [%]	remaining activity at 2.5 µM (CDK1/cyclinB(h)) [%]	remaining activity at 2.5 µM (EGFR(h)) [%]	remaining activity at 2.5 µM (TSSK2(h)) [%]	Compound
50	44	131	84	122	105	CN1CCCC1CCNC(=O)c1cn2c3c(c(N4CCC(c5cnccn5)C4)c(F)cc3c1=O)Oc1cc3ccccc3cc1-2 (stereo not drawn) [Compound A-1]
103	118	107	93	117	110	CC(=O)N1CCN(c2ccc3c(=O)c(C(=O)NCCN4CCCC4)c4n(C)c5ccccc5n4c3n2)CC1 [Compound B-1]
